Biological target: T1, human β3 adrenergic receptor (Homo sapiens, UniProt P13945)
T1 construct: expressed in transfected cells
Test: whole cell receptor coupled c-AMP assay (Emax relative to isoproterenol)
Assay type: cell-based
Settings: transfected CHO cells
From the text: The genes encoding the human β1-adrenergic receptor (Frielle et al., Proc. Natl. Acad. Sci., 84:7920–7924, 1987), the human β2-adrenergic receptor (Kobika et al., Proc. Natl. Acad. Sci., 84:46–50, 1987, Emorine et al., Proc. Natl. Acad. Sci., 84:6995–6999, 1987) and the human β3 adrenergic receptor (Granneman et al., Molecular Pharmacology, 44(2):264–70, 1993) are individually subcloned into a phd expression vector (Grinnell et al., Bio/Technology, 5:1189–1192, 1987) and transfected into the DXB-11 Chinese hamster ovary (CHO) cell line by calcium phosphate precipitation methodology. The stably transfected cells are grown to 95% confluency in 95% Dulbecco's modified Eagles Medium (DMEM), 5% fetal bovine serum and 0.01% proline. Media is removed and the cells are washed with phosphate buffered (pH 7.4) saline (without magnesium and calcium). Cells are then lifted using an enzyme free cell dissociation solution (Specialty Media, Lavallette, N.J.) and pelleted by centrifugation.
Cells from each of the above cell lines are resuspended and added (20,000/well) to a 96-well plate. Cells are incubated at 37° C. with representative compounds of the invention for 20 minutes in buffer (Hank's balanced salt solution, 10 mM HEPES, 0.1% BSA, 1 mM L-ascorbic acid, 0.2% dimethyl sulfoxide, 1 mM 3-isobutyl-1-methylxanthine, pH 7.4). After halting the incubation with quench buffer (50 mM Na Acetate, 0.25% Triton X-100, pH 5.8), the c-AMP level is quantified by scintillation proximity assay (SPA) using a modification of the commercially available c-AMP kit (Amersham, Arlington Heights, Ill.) with rabbit anti-cAMP antibody (ICN Biomedicals, Aurora, Ohio) for the kit.
Sigmoidal dose response curves, from the whole cell receptor coupled c-AMP assay are fit to a four parameter logistic equation using non linear regression: y=(a−d)/(1+(Dose/c)^b)+d where a and d are responses at zero and maximal dose, b is the slope factor and c is the EC50 as previously described (DeLean et al., Am. J. Physiol., 235, E97-E102, 1978). EC50 is assessed as the concentration producing 50% of the maximum response to each agonist.
Isoproterenol is accepted in the art as a non-selective β3 agonist and is widely used as a comparator in evaluating the activity of compounds. See Trends in Pharm. Sci., 15:3, 1994. The % intrinsic activity (Emax) of representative compounds of the invention is assessed relative to isoproterenol by the compound's maximal response divided by the isoproterenol maximal response times 100.

[1] = CHO, % intrinsic activity: maximal response divided by isoproterenol maximal response times 100, average of at least 3 runs
[2] = % intrinsic activity: maximal response divided by isoproterenol maximal response times 100, average of at least 3 runs

T1 sequence (P13945 whole entry): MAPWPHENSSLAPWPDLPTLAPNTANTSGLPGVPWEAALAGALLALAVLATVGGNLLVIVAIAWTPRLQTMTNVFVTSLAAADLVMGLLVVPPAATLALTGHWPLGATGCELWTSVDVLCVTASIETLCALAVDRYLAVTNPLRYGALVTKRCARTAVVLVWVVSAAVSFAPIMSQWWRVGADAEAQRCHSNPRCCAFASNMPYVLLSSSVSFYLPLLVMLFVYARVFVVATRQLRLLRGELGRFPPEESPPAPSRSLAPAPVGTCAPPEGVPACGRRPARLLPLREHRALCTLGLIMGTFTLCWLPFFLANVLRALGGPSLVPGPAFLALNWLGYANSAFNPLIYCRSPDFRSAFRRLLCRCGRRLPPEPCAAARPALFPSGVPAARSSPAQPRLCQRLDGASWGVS

Row | SMILES | Emax (%) ± SEM [2] [%] | also measured
1 | CC(C)(Cc1c[nH]c2ccc(OCC(=O)O)cc12)NC[C@H](O)COc1ccccc1-c1cccs1 [Example 237] |  | Emax [1]: 73.9 ± 2.9%
2 | CC(C)(Cc1c[nH]c2c(CCS(C)(=O)=O)cccc12)NC[C@H](O)COc1ccccc1-c1cccs1 [Example 142] | 82.1 ± 1.4 | 
3 | Cc1csc(-c2ccccc2OC[C@@H](O)CNC(C)(C)Cc2c[nH]c3ccccc23)c1.O=C(O)C(F)(F)F [Example 21] | 61.3 ± 3.2 | 
4 | CC(C)(Cc1c[nH]c2c(/C=C/c3nnn[nH]3)cccc12)NC[C@H](O)COc1ccccc1-c1cccs1 [Example 230] |  | Emax [1]: 81.3 ± 2.4%
5 | COC(=O)c1ccc(-c2cccc3c(CC(C)(C)NC[C@H](O)COc4ccccc4-c4cccs4)c[nH]c23)s1 [Example 181] | 39.6 ± 0.7 | 
6 | COC(=O)c1cccc2c(CC(C)(C)NC[C@H](O)COc3ccccc3-c3cccs3)c[nH]c12 [Example 76] | 67.6 ± 5.2 | 
7 | CC(C)(Cc1c[nH]c2c(-c3cccc(C(=O)O)c3)cccc12)NC[C@H](O)COc1ccccc1-c1ccon1 [Example 249] |  | Emax [1]: 68.8 ± 7.8%
8 | CC(C)(Cc1c[nH]c2c(OCC#N)cccc12)NC[C@H](O)COc1ccccc1-c1ccon1 [Example 132] | 53.6 ± 1.4 | 
9 | CC(C)(Cc1c[nH]c2c(C(=O)O)cccc12)NC[C@H](O)COc1ccccc1-c1ccc(C#N)s1 [Example 90] | 90.4 ± 3.8 | 
10 | CCOC(=O)c1cccc(-c2cccc3c(CC(C)(C)NC[C@H](O)COc4ccccc4-c4ccon4)c[nH]c23)c1 [Example 41] | 73.1 ± 1.0 | 
11 | CC(C)(CC1=CCc2c(Oc3ccc(C(N)=O)cn3)cccc21)NC[C@H](O)COc1ccccc1-c1cccs1 [Example 219] |  | Emax [1]: 85.9 ± 9.4%
12 | CC(C)(Cc1c[nH]c2c(Oc3ccc(C(=O)O)cn3)cccc12)NC[C@H](O)COc1ccccc1-c1ccon1 [Example 244] |  | Emax [1]: 77 ± 2.1%
13 | CC(C)(Cc1c[nH]c2c(-c3ccc(C(F)(F)F)cc3C(F)(F)F)cccc12)NC[C@H](O)COc1ccccc1-c1ccon1 [Example 111] | 86.0 ± 4.0 | 
14 | CC(C)(Cc1c[nH]c2cc(F)ccc12)NC[C@H](O)COc1ccccc1-c1cccs1 [Example 158] | 69.6 ± 4.8 | 
15 | CC(C)(Cc1c[nH]c2c(OCC(N)=O)cccc12)NC[C@H](O)COc1ccccc1-n1cccc1 [Example 3] | 68.9 ± 2.6 | 
16 | CC(C)(Cc1c[nH]c2c(Oc3ncccc3C#N)cccc12)NC[C@H](O)COc1ccccc1-c1cccs1 [Example 112] | 97.7 ± 5.9 | 
17 | C[C@H](Cn1ccc2c(OCC(=O)O)cccc21)NC[C@H](O)COc1ccccc1-c1ccns1 [Example 235] |  | Emax [1]: 76.7 ± 4.4%
18 | CC(C)(Cc1c[nH]c2c(OCC(=O)O)cccc12)NC[C@H](O)COc1ccccc1-c1ccno1 [Example 233] |  | Emax [1]: 52.4 ± 6%
19 | Cc1ccc(-c2ccccc2OC[C@@H](O)CNC(C)(C)Cc2c[nH]c3c(OCC#N)cccc23)s1.O=C(O)C(F)(F)F [Example 14] | 75.2 ± 3.0 | 
20 | CC(C)(Cc1c[nH]c2c(-c3ccc(C(F)(F)F)cc3C(F)(F)F)cccc12)NC[C@H](O)COc1ccccc1-c1cccs1 [Example 110] | 72.7 ± 5.3 | 
21 | Cc1cc(-c2ccccc2OC[C@@H](O)CNC(C)(C)Cc2c[nH]c3c(OCC#N)cccc23)cs1.O=C(O)C(F)(F)F [Example 18] | 52.3 ± 0.7 | 
22 | CC(C)(Cc1c[nH]c2c(C(N)=O)cccc12)NC[C@H](O)COc1ccccc1-c1cccs1 [Example 174] | 57.6 ± 0.6 | 
23 | CC(C)(Cc1c[nH]c2c(-c3cccs3)cccc12)NC[C@H](O)COc1ccccc1-c1cccs1 [Example 108] | 71.5 ± 7.9 | 
24 | CC(C)(Cc1c[nH]c2ccccc12)NC[C@H](O)COc1ccccc1-n1cccc1 [Example 32] | 58.9 ± 1.9 | 
25 | CC(C)(Cc1c[nH]c2c(-c3ccc(C(N)=O)cc3)cccc12)NC[C@H](O)COc1ccccc1-c1cccs1 [Example 102] | 69.0 ± 2.2 | 
26 | CC(C)(Cc1c[nH]c2c(OCC#N)cccc12)NC[C@H](O)COc1ccccc1-c1ncco1.O=C(O)C(F)(F)F [Example 8] | 82.2 ± 3.8 | 
27 | CC(C)(Cc1c[nH]c2c(-c3ccsc3)cccc12)NC[C@H](O)COc1ccccc1-c1cccs1 [Example 106] | 78.0 ± 8.5 | 

Row | SMILES | Emax (%) ± SEM [2] [%] | also measured
28 | CC(C)(Cc1c[nH]c2c(C=CS(C)(=O)=O)cccc12)NCC(O)COc1ccccc1-c1cccs1 (stereo not drawn) [Example 141] | 65.0 ± 2.0 | 
29 | CC(C)(Cc1c[nH]c2c(OCC(=O)O)cccc12)NC[C@H](O)COc1ccccc1-c1cccs1 [Example 224] | 94.3 ± 4.6 | 
30 | C[C@@H](Cc1c[nH]c2c(F)cc(F)cc12)NC[C@H](O)COc1ccccc1-c1cccs1 [Example 194] |  | Emax (% intrinsic activity relative to isoproterenol): 25.6%
31 | CC(C)(Cc1c[nH]c2c(OCC#N)cccc12)NC[C@H](O)COc1ccccc1-c1cc(C#N)cs1.O=C(O)C(F)(F)F [Example 20] | 59.1 ± 3.1 | 
32 | Cc1cc(-c2ccccc2OC[C@@H](O)CNC(C)(C)Cc2c[nH]c3ccccc23)on1 [Example 36] | 63.9 ± 1.6 | 
33 | COC(=O)c1ccc(-c2cccc3c(CC(C)(C)NC[C@H](O)COc4ccccc4-c4ccon4)c[nH]c23)cc1 [Example 44] | 38.5 ± 2.3 | 
34 | C[C@H](CN1CCc2ccccc21)NC[C@H](O)COc1ccccc1-c1cccs1 [Example 128] | 46.5 ± 3.0 | 
35 | CC(C)(Cc1c[nH]c2c(CCC(=O)O)cccc12)NC[C@H](O)COc1ccccc1-c1cccs1 [Example 228] |  | Emax [1]: 79.5 ± 0.6%
36 | CC(C)(Cc1c[nH]c2c(OCC#N)cccc12)NC[C@H](O)COc1ccccc1-c1ccsc1.Cl [Example 52] | 74.0 ± 3.1 | 
37 | CC(C)(Cc1c[nH]c2c(C(=O)O)cccc12)NC[C@H](O)COc1ccccc1-c1ccc(S(N)(=O)=O)s1 [Example 54] | 79.0 ± 3.5 | 
38 | CC(C)(Cc1c[nH]c2c(Oc3ccc(C(N)=O)cn3)cccc12)NC[C@H](O)COc1ccccc1-c1ccon1 [Example 245] |  | Emax [1]: 63.3 ± 3%
39 | CC(C)(Cc1c[nH]c2c(NS(=O)(=O)c3ccccc3)cccc12)NC[C@H](O)COc1ccccc1-c1cccs1 [Example 25] | 89.6 ± 10.9 | 
40 | CC(C)(Cc1c[nH]c2c(C=Cc3ccc(S(N)(=O)=O)cc3)cccc12)NC[C@H](O)COc1ccccc1-c1cccs1 [Example 189] | 64.5 ± 1.7 | 
41 | CC(C)(Cc1c[nH]c2c(F)cccc12)NC[C@H](O)COc1ccccc1-c1ccon1 [Example 173] | 50.2 ± 1.5 | 
42 | CC(C)(Cc1c[nH]c2cc(CCc3nnn[nH]3)ccc12)NC[C@H](O)COc1ccccc1-c1cccs1 [Example 255] |  | Emax [1]: 83.9 ± 3.2%
43 | CC(C)(Cc1c[nH]c2c(OCC(=O)O)cccc12)NC[C@H](O)COc1ccccc1-c1ccon1 [Example 223] |  | Emax [1]: 56.1 ± 2.8%
44 | CC(Cc1cn(C)c2c(F)cc(F)cc12)NCC(O)COc1ccccc1-c1cccs1 (stereo not drawn) [Example 197] | 34.5 ± 4.2 | 
45 | CC(C)(Cc1c[nH]c2ccccc12)NC[C@H](O)COc1ccccc1-c1ccc(F)s1 [Example 126] | 76.1 ± 2.9 | 
46 | O[C@@H](CNCCn1ccc2ccccc21)COc1ccccc1-c1cccs1 [Example 64] | 22.2 ± 4.5 | 
47 | Cc1cc(-c2ccccc2OC[C@@H](O)CNC(C)(C)Cc2c[nH]c3ccccc23)cs1.O=C(O)C(F)(F)F [Example 17] | 43.1 ± 3.0 | 
48 | CC(C)(Cc1c[nH]c2cc(C#N)ccc12)NC[C@H](O)COc1ccccc1-c1ccon1 [Example 78] | 58.6 ± 0.9 | 
49 | Cc1csc(-c2ccccc2OC[C@@H](O)CNC(C)(C)Cc2c[nH]c3c(OCC#N)cccc23)c1.O=C(O)C(F)(F)F [Example 22] | 66.0 ± 0.9 | 
50 | CC(C)(Cc1c[nH]c2cc(C=CC#N)ccc12)NC[C@H](O)COc1ccccc1-c1cccs1 [Example 190] | 69.3 ± 1.3 | 
51 | CC(C)(Cc1c[nH]c2c(CCc3ccc(C(N)=O)cc3)cccc12)NC[C@H](O)COc1ccccc1-c1cccs1 [Example 220] |  | Emax [1]: 81.2 ± 0.6%
52 | CC(=O)c1cccc(-c2cccc3c(CC(C)(C)NC[C@H](O)COc4ccccc4-c4ccon4)c[nH]c23)c1 [Example 47] | 69.2 ± 2.0 | 
53 | CC(C)(Cc1c[nH]c2c(OCC#N)cccc12)NC[C@H](O)COc1ccccc1-n1cccc1 [Example 256] |  | Emax [1]: 71.4 ± 2.7%
54 | CC(C)(Cc1c[nH]c2c(OCC#N)cccc12)NC[C@H](O)COc1ccccc1-c1cnco1.O=C(O)C(F)(F)F [Example 7] | 58.4 ± 1.7 | 

Source: US7208505B2, “β3 adrenergic agonists” (Eli Lilly and Company, priority 2001, dated 2007)
